Earlier results in US11439626B2 (Icahn School of Medicine at Mount Sinai, priority 2019, dated 2022).
Where two headings read alike, the source gives them in different places.

How the values were obtained:
[1] = tested on: patients with traumatic spinal cord injuries; conditions: cervical injuries, 90 days post-injury
[2] = for % Abs: 100 mg dose
[3] = not given; remark: listed apart in the source

For Nc1nc2ccc(OC(F)(F)F)cc2s1 [riluzole, 2-Amino-6-(trifluoromethoxy)benzothiazole], the motor outcomes [1] is given as “improved motor outcomes”, the “dose recovered in the urine” value (human, in vivo) is given as 90% and the “dose recovered in the urine as glucuronides” value (human, in vivo) is given as 85%. The “dose recovered in the urine as unchanged riluzole” value (human, in vivo) was 2%, the “fecal excretion of administered dose” value (human, in vivo) was 5% and the accumulation (repeated twice daily dosing) was “approximately 2 fold”. The Cmin ([2]; 100 mg BID treatment arm, reported by Le Liboux et al.) was ~40 ng/mL, the “% Abs” value ([2]; Fasted (observed)) was 100% and the “% Abs” value ([2]; Fed (observed)) was 80%. The trough concentrations ([3]; 50 mg twice daily, non-smoking males, predicted profile (Bruno et al.)) was ~0.03 µg/mL, the Proportional error ([3]; error model parameter (SIGMA)) was 0.0697 and the “V/F Inter-occasion variability” value ([3]; variability parameter (ETA)) was 0.111.
